{"source": "patent US10815230B2", "about": "“Casein kinase 1 delta inhibitor” (ELECTROPHORETICS LIMITED, priority 2015, dated 2020)", "assay_in_all_cases": "Kinase selectivity, % remaining activity", "assay_type_in_all_cases": "biochemical", "details_in_all_cases": "10 μM compound, 10 μM ATP, duplicate", "key": {"ABL2/ARG": {"biological_target": "ABL2/ARG (Homo sapiens, UniProt P42684)", "procedure": "(§1) A two-tier strategy to determine the selectivity of compound A was applied: first, the compound was tested at a single concentration (in duplicate) to determine the %-remaining activity of the target kinase. Subsequently, the IC50 of compound A and comparative compounds for casein kinase 1 delta were determined.\n(§2) Compounds were tested in single dose duplicate mode at a concentration of 10 μM (in DMSO) and reactions were carried out at 10 μM ATP, Table 3 reports the % of remaining activity (relative to DMSO)."}, "CDK5/p25": {"biological_target": "CDK5/p25 (Homo sapiens, UniProt Q00535)", "procedure": "as §1, §2"}, "CK1e": {"biological_target": "CK1e (Homo sapiens, UniProt P49674)", "procedure": "as §1, §2"}, "CK1g1": {"biological_target": "CK1g1 (Homo sapiens, UniProt Q9HCP0)", "procedure": "as §1, §2"}, "CK1g3": {"biological_target": "CK1g3 (Homo sapiens, UniProt Q9Y6M4)", "sequence (Q9Y6M4 whole entry)": "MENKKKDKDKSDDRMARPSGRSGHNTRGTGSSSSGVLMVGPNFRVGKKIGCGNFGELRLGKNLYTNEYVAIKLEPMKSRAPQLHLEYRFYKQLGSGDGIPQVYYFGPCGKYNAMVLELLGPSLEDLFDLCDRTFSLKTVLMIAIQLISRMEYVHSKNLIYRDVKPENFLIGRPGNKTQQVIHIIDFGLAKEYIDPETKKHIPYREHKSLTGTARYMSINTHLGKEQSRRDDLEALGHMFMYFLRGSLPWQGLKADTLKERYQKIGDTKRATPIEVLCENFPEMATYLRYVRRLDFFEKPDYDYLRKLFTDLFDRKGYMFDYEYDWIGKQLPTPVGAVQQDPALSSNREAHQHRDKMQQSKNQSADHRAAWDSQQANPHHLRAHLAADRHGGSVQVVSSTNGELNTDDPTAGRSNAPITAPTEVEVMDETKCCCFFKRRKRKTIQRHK", "procedure": "as §1, §2"}, "CLK2": {"biological_target": "CLK2 (Homo sapiens, UniProt P49760)", "procedure": "as §1, §2"}, "DAPK1": {"biological_target": "DAPK1 (Homo sapiens, UniProt P53355)", "procedure": "as §1, §2"}, "EGFR": {"biological_target": "EGFR (Homo sapiens, UniProt P00533)", "procedure": "as §1, §2"}, "EPHA2": {"biological_target": "EPHA2 (Homo sapiens, UniProt P29317)", "procedure": "as §1, §2"}, "FGFR1": {"biological_target": "FGFR1 (Homo sapiens, UniProt P11362)", "procedure": "as §1, §2"}, "GSK3B": {"biological_target": "GSK3B (Homo sapiens, UniProt P49841)", "sequence (P49841 whole entry)": "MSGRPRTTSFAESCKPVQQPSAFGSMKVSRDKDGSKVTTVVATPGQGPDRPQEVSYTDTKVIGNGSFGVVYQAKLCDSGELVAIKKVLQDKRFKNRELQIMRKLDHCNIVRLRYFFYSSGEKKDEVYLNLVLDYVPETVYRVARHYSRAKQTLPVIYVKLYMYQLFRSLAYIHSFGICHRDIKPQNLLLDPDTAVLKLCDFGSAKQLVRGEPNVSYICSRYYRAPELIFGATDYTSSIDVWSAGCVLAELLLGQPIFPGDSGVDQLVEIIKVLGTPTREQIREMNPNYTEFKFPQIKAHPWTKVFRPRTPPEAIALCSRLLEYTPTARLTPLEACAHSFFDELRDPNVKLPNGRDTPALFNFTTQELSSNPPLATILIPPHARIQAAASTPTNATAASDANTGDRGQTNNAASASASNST", "procedure": "as §1, §2"}, "JNK2": {"biological_target": "JNK2 (Homo sapiens, UniProt P45984)", "sequence (P45984 whole entry)": "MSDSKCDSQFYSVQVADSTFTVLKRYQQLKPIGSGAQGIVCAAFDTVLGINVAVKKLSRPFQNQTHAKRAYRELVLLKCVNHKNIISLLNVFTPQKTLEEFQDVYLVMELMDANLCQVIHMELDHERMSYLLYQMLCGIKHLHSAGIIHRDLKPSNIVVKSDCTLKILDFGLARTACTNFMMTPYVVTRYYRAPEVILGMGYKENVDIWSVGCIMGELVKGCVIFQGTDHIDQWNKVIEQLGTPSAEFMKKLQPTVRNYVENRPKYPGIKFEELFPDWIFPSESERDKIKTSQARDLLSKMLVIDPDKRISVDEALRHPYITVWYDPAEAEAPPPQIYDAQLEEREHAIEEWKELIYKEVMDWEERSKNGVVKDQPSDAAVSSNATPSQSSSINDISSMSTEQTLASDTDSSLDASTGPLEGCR", "procedure": "as §1, §2"}, "KDR/VEGFR2": {"biological_target": "KDR/VEGFR2 (Homo sapiens, UniProt P35968)", "procedure": "as §1, §2"}, "LCK": {"biological_target": "LCK (Homo sapiens, UniProt P06239)", "sequence (P06239 whole entry)": "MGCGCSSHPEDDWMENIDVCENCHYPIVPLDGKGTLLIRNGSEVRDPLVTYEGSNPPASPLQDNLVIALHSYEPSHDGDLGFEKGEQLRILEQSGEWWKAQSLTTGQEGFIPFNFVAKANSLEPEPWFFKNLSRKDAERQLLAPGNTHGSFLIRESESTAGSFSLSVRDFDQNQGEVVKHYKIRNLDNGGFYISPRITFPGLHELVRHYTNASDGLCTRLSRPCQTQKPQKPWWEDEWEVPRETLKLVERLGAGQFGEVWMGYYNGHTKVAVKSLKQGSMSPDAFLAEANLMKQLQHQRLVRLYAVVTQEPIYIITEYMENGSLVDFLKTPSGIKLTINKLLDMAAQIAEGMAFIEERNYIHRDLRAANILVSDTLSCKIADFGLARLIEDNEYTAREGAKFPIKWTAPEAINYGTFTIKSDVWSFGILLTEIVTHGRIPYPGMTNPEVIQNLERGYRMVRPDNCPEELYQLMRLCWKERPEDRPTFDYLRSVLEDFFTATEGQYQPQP", "procedure": "as §1, §2"}, "P38a/MAPK14": {"biological_target": "P38a/MAPK14 (Homo sapiens, UniProt Q16539)", "sequence (Q16539 whole entry)": "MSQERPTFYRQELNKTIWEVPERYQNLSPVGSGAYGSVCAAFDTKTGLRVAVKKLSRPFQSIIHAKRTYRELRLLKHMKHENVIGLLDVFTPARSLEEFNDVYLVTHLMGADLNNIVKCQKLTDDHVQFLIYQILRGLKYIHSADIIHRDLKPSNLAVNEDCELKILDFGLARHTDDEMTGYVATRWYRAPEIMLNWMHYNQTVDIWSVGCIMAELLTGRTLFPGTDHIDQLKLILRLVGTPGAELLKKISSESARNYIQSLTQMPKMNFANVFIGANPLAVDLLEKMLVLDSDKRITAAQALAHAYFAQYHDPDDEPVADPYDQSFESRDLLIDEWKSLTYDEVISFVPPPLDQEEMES", "procedure": "as §1, §2"}, "PDK1/PDPK1": {"biological_target": "T1, PDK1/PDPK1 (Homo sapiens, UniProt O15530)", "T1 sequence (O15530 1-556)": "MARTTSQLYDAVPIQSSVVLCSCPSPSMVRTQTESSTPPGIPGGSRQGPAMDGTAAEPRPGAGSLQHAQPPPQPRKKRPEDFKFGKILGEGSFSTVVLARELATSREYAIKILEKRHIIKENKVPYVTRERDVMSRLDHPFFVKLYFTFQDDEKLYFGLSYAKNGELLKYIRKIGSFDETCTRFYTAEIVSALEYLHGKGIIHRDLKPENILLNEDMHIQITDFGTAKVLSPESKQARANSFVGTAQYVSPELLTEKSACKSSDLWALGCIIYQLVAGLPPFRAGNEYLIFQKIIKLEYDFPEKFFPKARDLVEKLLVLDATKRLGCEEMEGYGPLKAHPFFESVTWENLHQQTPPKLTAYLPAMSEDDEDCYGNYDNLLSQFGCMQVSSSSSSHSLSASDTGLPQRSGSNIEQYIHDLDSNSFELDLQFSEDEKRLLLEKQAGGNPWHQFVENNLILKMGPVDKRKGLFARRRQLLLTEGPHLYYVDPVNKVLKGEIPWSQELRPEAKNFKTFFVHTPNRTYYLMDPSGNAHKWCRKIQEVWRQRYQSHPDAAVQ", "procedure": "as §1, §2"}, "PIM3": {"biological_target": "PIM3 (Homo sapiens, UniProt Q86V86)", "procedure": "as §1, §2"}, "PKA": {"biological_target": "PKA (Homo sapiens, UniProt P17612)", "procedure": "as §1, §2"}, "PKCb2": {"biological_target": "PKCb2 (Homo sapiens, UniProt P05771)", "procedure": "as §1, §2"}, "RIPK2": {"biological_target": "RIPK2 (Homo sapiens, UniProt O43353)", "sequence (O43353 whole entry)": "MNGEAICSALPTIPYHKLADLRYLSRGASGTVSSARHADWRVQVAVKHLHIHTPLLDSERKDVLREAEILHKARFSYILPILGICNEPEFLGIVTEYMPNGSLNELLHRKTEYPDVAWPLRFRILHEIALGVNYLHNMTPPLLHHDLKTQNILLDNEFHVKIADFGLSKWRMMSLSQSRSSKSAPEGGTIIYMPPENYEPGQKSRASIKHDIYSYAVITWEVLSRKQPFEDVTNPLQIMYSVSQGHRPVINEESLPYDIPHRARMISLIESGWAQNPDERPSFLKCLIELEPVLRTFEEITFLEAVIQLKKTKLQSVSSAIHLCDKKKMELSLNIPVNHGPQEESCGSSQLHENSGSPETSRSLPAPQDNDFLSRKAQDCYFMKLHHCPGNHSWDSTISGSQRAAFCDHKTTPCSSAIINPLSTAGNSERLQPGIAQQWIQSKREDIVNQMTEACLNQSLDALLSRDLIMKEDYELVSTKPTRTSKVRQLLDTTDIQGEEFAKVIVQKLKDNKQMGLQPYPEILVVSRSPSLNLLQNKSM", "procedure": "as §1, §2"}, "ROCK1": {"biological_target": "ROCK1 (Homo sapiens, UniProt Q13464)", "procedure": "as §1, §2"}, "TNIK": {"biological_target": "TNIK (Homo sapiens, UniProt Q9UKE5)", "sequence (Q9UKE5 whole entry)": "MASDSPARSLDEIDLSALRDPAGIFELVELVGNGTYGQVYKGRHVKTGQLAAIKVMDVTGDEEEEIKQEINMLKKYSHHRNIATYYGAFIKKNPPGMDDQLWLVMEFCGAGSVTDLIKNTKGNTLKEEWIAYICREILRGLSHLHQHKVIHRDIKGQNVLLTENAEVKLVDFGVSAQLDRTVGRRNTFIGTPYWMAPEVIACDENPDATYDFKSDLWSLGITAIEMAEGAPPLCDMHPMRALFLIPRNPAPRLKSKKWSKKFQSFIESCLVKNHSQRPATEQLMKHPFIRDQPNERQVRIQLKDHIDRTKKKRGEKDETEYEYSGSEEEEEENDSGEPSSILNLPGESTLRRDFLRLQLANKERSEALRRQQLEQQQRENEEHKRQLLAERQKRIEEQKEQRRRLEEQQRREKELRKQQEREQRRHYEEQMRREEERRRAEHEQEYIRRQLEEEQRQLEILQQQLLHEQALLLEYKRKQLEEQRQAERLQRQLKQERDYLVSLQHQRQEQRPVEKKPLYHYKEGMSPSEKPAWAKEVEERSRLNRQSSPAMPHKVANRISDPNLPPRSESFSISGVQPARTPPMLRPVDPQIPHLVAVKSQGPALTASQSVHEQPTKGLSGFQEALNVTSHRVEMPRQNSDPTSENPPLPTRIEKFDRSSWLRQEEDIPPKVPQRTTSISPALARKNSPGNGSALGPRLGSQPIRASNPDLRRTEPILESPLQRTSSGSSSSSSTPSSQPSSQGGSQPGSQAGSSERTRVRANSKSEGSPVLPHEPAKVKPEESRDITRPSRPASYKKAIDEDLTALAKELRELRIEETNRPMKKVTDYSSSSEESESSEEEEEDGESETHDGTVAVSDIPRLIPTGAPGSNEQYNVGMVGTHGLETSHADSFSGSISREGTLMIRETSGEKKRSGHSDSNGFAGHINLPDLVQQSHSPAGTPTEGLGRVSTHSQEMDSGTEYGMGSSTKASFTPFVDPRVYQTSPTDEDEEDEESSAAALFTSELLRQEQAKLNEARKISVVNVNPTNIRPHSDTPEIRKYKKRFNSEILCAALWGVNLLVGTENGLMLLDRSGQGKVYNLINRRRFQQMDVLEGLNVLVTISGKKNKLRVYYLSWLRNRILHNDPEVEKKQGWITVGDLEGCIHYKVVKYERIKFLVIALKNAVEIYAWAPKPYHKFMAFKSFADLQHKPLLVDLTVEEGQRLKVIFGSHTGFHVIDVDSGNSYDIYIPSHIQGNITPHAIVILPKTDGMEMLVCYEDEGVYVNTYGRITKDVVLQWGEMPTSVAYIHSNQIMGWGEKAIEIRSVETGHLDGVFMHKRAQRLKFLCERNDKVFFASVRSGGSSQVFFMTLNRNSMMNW", "procedure": "as §1, §2"}, "YES/YES1": {"biological_target": "YES/YES1 (Homo sapiens, UniProt P07947)", "procedure": "as §1, §2"}, "c-Src": {"biological_target": "c-Src (Homo sapiens, UniProt P12931)", "sequence (P12931 whole entry, species assumed)": "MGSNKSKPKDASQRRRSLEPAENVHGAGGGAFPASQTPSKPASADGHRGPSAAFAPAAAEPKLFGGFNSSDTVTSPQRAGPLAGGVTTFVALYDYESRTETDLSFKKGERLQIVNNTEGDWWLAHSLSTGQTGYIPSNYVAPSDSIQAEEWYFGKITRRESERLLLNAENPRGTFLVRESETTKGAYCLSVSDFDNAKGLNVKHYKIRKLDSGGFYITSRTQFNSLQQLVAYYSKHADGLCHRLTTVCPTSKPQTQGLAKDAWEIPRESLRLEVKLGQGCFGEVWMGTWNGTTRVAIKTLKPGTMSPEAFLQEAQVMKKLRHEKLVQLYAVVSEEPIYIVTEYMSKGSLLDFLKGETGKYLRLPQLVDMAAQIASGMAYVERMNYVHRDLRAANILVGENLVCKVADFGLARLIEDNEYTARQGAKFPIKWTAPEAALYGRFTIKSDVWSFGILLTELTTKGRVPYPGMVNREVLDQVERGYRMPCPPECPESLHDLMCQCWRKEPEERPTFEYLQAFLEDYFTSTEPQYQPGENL", "procedure": "as §1, §2"}, "[1]": {"details": "read-out: % of remaining activity (relative to DMSO)"}}, "note": "Marks after values point to notes of the source that are not given here.", "data": [{"smiles": "CNc1c(C(N)=O)c2ccccn2c1C(=O)c1ccc(F)cc1", "note": "[Compound A, 2-methyl-amino-3-[(4-fluorophenyl)carbonyl]indolizine-1-carboxamide]", "values": [{"measurement": "% of remaining activity (relative to DMSO)", "setting": "ABL2/ARG; listed as Cmp A", "value": 70.98, "unit": "%"}, {"measurement": "remaining activity at 10 µM", "setting": "ABL2/ARG; [1]", "value": 71.3, "unit": "%"}, {"measurement": "% of remaining activity (relative to DMSO)", "setting": "CDK5/p25; listed as Cmp A", "value": 88.62, "unit": "%"}, {"measurement": "remaining activity at 10 µM", "setting": "CDK5/p25; [1]", "value": 90.2, "unit": "%"}, {"measurement": "% of remaining activity (relative to DMSO)", "setting": "CK1e; listed as Cmp A", "value": 3.67, "unit": "%"}, {"measurement": "remaining activity at 10 µM", "setting": "CK1e; [1]", "value": 2.81, "unit": "%"}, {"measurement": "% of remaining activity (relative to DMSO)", "setting": "CK1g1; listed as Cmp A", "value": 119.87, "unit": "%"}, {"measurement": "remaining activity at 10 µM", "setting": "CK1g1; [1]", "value": 107, "unit": "%"}, {"measurement": "% of remaining activity (relative to DMSO)", "setting": "CK1g3; listed as Cmp A", "value": 97.24, "unit": "%"}, {"measurement": "remaining activity at 10 µM", "setting": "CK1g3; [1]", "value": 98.5, "unit": "%"}, {"measurement": "% of remaining activity (relative to DMSO)", "setting": "CLK2; listed as Cmp A", "value": 105.40, "unit": "%"}, {"measurement": "remaining activity at 10 µM", "setting": "CLK2; [1]", "value": 100, "unit": "%"}, {"measurement": "% of remaining activity (relative to DMSO)", "setting": "DAPK1; listed as Cmp A", "value": 124.50, "unit": "%"}, {"measurement": "remaining activity at 10 µM", "setting": "DAPK1; [1]", "value": 134, "unit": "%"}, {"measurement": "% of remaining activity (relative to DMSO)", "setting": "EGFR; listed as Cmp A", "value": 52.51, "unit": "%"}, {"measurement": "remaining activity at 10 µM", "setting": "EGFR; [1]", "value": 55.8, "unit": "%"}, {"measurement": "% of remaining activity (relative to DMSO)", "setting": "EPHA2; listed as Cmp A", "value": 55.67, "unit": "%"}, {"measurement": "remaining activity at 10 µM", "setting": "EPHA2; [1]", "value": 59, "unit": "%"}, {"measurement": "% of remaining activity (relative to DMSO)", "setting": "FGFR1; listed as Cmp A", "value": 95.15, "unit": "%"}, {"measurement": "remaining activity at 10 µM", "setting": "FGFR1; [1]", "value": 95.7, "unit": "%"}, {"measurement": "% of remaining activity (relative to DMSO)", "setting": "GSK3B; listed as Cmp A", "value": 122.02, "unit": "%"}, {"measurement": "remaining activity at 10 µM", "setting": "GSK3B; [1]", "value": 124, "unit": "%"}, {"measurement": "% of remaining activity (relative to DMSO)", "setting": "JNK2; listed as Cmp A", "value": 97.26, "unit": "%"}, {"measurement": "remaining activity at 10 µM", "setting": "JNK2; [1]", "value": 99.9, "unit": "%"}, {"measurement": "% of remaining activity (relative to DMSO)", "setting": "KDR/VEGFR2; listed as Cmp A", "value": 109.28, "unit": "%"}, {"measurement": "remaining activity at 10 µM", "setting": "KDR/VEGFR2; [1]", "value": 111, "unit": "%"}, {"measurement": "% of remaining activity (relative to DMSO)", "setting": "LCK; listed as Cmp A", "value": 39.87, "unit": "%"}, {"measurement": "remaining activity at 10 µM", "setting": "LCK; [1]", "value": 39.4, "unit": "%"}, {"measurement": "% of remaining activity (relative to DMSO)", "setting": "P38a/MAPK14; listed as Cmp A", "value": "34.47* %"}, {"measurement": "remaining activity at 10 µM", "setting": "P38a/MAPK14; [1]", "value": 35.3, "unit": "%"}, {"measurement": "% of remaining activity (relative to DMSO)", "setting": "PDK1/PDPK1; listed as Cmp A", "value": 105.50, "unit": "%"}, {"measurement": "remaining activity at 10 µM", "setting": "PDK1/PDPK1; [1]", "value": 107, "unit": "%"}, {"measurement": "% of remaining activity (relative to DMSO)", "setting": "PIM3; listed as Cmp A", "value": 119.96, "unit": "%"}, {"measurement": "remaining activity at 10 µM", "setting": "PIM3; [1]", "value": 125, "unit": "%"}, {"measurement": "% of remaining activity (relative to DMSO)", "setting": "PKA; listed as Cmp A", "value": 82.86, "unit": "%"}, {"measurement": "remaining activity at 10 µM", "setting": "PKA; [1]", "value": 84.3, "unit": "%"}, {"measurement": "% of remaining activity (relative to DMSO)", "setting": "PKCb2; listed as Cmp A", "value": 111.60, "unit": "%"}, {"measurement": "remaining activity at 10 µM", "setting": "PKCb2; [1]", "value": 113, "unit": "%"}, {"measurement": "% of remaining activity (relative to DMSO)", "setting": "RIPK2; listed as Cmp A", "value": 91.39, "unit": "%"}, {"measurement": "remaining activity at 10 µM", "setting": "RIPK2; [1]", "value": 93.5, "unit": "%"}, {"measurement": "% of remaining activity (relative to DMSO)", "setting": "ROCK1; listed as Cmp A", "value": 96.14, "unit": "%"}, {"measurement": "remaining activity at 10 µM", "setting": "ROCK1; [1]", "value": 95.5, "unit": "%"}, {"measurement": "% of remaining activity (relative to DMSO)", "setting": "TNIK; listed as Cmp A", "value": 94.12, "unit": "%"}, {"measurement": "remaining activity at 10 µM", "setting": "TNIK; [1]", "value": 94.4, "unit": "%"}, {"measurement": "% of remaining activity (relative to DMSO)", "setting": "YES/YES1; listed as Cmp A", "value": 60.09, "unit": "%"}, {"measurement": "remaining activity at 10 µM", "setting": "YES/YES1; [1]", "value": 58.4, "unit": "%"}, {"measurement": "% of remaining activity (relative to DMSO)", "setting": "c-Src; listed as Cmp A", "value": 60.86, "unit": "%"}, {"measurement": "remaining activity at 10 µM", "setting": "c-Src; [1]", "value": 61, "unit": "%"}]}]}
